Common to all, as to format: functional
One test deals with SW707. Kind of test: (§1) Cytotoxicity against human SW707 cells after 72 hrs by SRB assay.
Another test relates to CCRF-CEM. The test can be described thus: Cytotoxicity against human CCRF-CEM cells after 72 hrs by SRB assay. Particulars: for IC50: read-out: ID50 (the source's name).
For a further test, the system named is P388. Kind of test: Cytotoxicity against mouse P388 cells after 72 hrs by MTT assay. Particulars: for IC50: P388, 72 h, read-out: ID50 (the source's name).
A further test concerns B16. The test can be described thus: Cytotoxicity against mouse B16 cells after 72 hrs by SRB assay. The following applies: for IC50: B16, 72 h, read-out: ID50 (the source's name).
Test [1] in a line: as §1. Particulars: SW707, 72 h, read-out: ID50 (the source's name).

≈ marks a conversion by molar mass, not a printed value. Calls of active or inactive are those of the source. The calls are words filed in the database; no cut-off is given here.

Here are results for 19 molecules from ChEMBL document CHEMBL1157346, “Synthesis and antiproliferative activity in vitro of novel (2-butynyl)thioquinolines” (2008).

Turning to `C#CCSc1cnc2ccccc2c1SCC#CCSc1c(SCC#C)cnc2ccccc12`, the result with SW707, in the test on CCRF-CEM, in the test on P388 and in the test on B16 was inactive.

As for `C#CC[Se]c1c(SCC#CCO)cnc2ccccc12`, the IC50 is 3.8 µg/mL (≈ 11 µM) in test [1], 1.9 µg/mL (≈ 5.49 µM) in the test on CCRF-CEM, 2.5 µg/mL (≈ 7.22 µM) with P388 and 6.8 µg/mL (≈ 19.6 µM) with B16.

Consider `CSc1c(SCC#CCO)cnc2ccccc12`, for which the figures for the IC50 (in test [1]; in the test on CCRF-CEM; in the test with P388) were 69.3 µg/mL (≈ 252 µM), 13.9 µg/mL (≈ 50.5 µM) and 32.3 µg/mL (≈ 117 µM), respectively. For the same molecule, the result with B16 was inactive.

Take `COc1c(SCC#CCO)cnc2ccccc12`: the figures for the IC50 (in test [1]; with CCRF-CEM; in the test on P388) were 67.4 µg/mL (≈ 260 µM), 22 µg/mL (≈ 84.8 µM) and 23.2 µg/mL (≈ 89.5 µM), respectively. Also, in the test with B16, the outcome was inactive.

On to `C#CCSc1cnc2ccccc2c1SCC#CCO`, for which the IC50 in test [1] is 42.6 µg/mL (≈ 142 µM); in the test on CCRF-CEM, 3.2 µg/mL (≈ 10.7 µM); in the test with P388 it was 4 µg/mL (≈ 13.4 µM); with B16 it was 54.7 µg/mL (≈ 183 µM).

With `CSc1cnc2ccccc2c1SCC#CCSc1c(SC)cnc2ccccc12`, the result in the test with SW707, in the test with CCRF-CEM, in the test on P388 and with B16 was inactive.

In the case of `C#CCSc1cnc2ccccc2c1[Se]CC#CCO`, the IC50 turned out to be 3.3 µg/mL (≈ 9.53 µM) in test [1], 3.2 µg/mL (≈ 9.24 µM) in the test with CCRF-CEM, 3.1 µg/mL (≈ 8.95 µM) in the test on P388 and 3.6 µg/mL (≈ 10.4 µM) in the test with B16.

As to `C#CCSc1cnc2ccccc2c1[Se]CC#CCBr`, the IC50 in test [1] is 2.2 µg/mL (≈ 5.38 µM); with CCRF-CEM it was 0.3 µg/mL (≈ 0.733 µM); with P388, 1.2 µg/mL (≈ 2.93 µM); in the test on B16, 4.2 µg/mL (≈ 10.3 µM).

With `C[Se]c1c(SCC#CCO)cnc2ccccc12`, the IC50 in test [1] was found to be 3.5 µg/mL (≈ 10.9 µM); with CCRF-CEM, 2.1 µg/mL (≈ 6.52 µM); in the test with P388, 19.8 µg/mL (≈ 61.4 µM); with B16, 5.8 µg/mL (≈ 18 µM).

Turning to `CSc1cnc2ccccc2c1SCC#CCO`, the IC50 turned out to be 34.9 µg/mL (≈ 127 µM) in test [1], 2.3 µg/mL (≈ 8.35 µM) in the test on CCRF-CEM, 3.1 µg/mL (≈ 11.3 µM) in the test on P388 and 49.8 µg/mL (≈ 181 µM) in the test with B16.

Regarding `OCC#CCSc1cnc2ccccc2c1[Se]CC#CCO`, the IC50 in test [1] worked out at 26.6 µg/mL (≈ 70.7 µM); with CCRF-CEM, 1.4 µg/mL (≈ 3.72 µM); in the test with P388, 4.1 µg/mL (≈ 10.9 µM); with B16, 4.3 µg/mL (≈ 11.4 µM).

As to `C#CCSc1cnc2ccccc2c1SCC#CC[Se]c1c(SCC#CC)cnc2ccccc12`, the IC50 in test [1] stood at 43 µg/mL (≈ 75 µM); in the test on CCRF-CEM, 30.3 µg/mL (≈ 52.8 µM); in the test on P388, 30.7 µg/mL (≈ 53.5 µM). The outcome in the test on B16 was inactive.

In the case of `C#CCSc1c(SCC#CCO)cnc2ccccc12`, the result in the test on SW707 and in the test with B16 was inactive. Further, the IC50 with CCRF-CEM turned out to be 2.7 µg/mL (≈ 9.02 µM); in the test on P388, 13.3 µg/mL (≈ 44.4 µM).

Turning to `CC#CCSc1cnc2ccccc2c1SCC#CCSc1c(SCC#CC)cnc2ccccc12`, the outcome with SW707, with CCRF-CEM, with P388 and with B16 was inactive.

`OCC#CCSc1cnc2ccccc2c1SCC#CCO`: the IC50 in test [1] turned out to be 32 µg/mL (≈ 97.1 µM); in the test on CCRF-CEM it was 2.6 µg/mL (≈ 7.89 µM); in the test with P388 it was 5.7 µg/mL (≈ 17.3 µM); in the test with B16, 42.2 µg/mL (≈ 128 µM).

With `OCC#CCSc1cnc2ccccc2c1[Se]CC#CCBr`, the IC50 in test [1] was 2.8 µg/mL (≈ 6.37 µM); with CCRF-CEM, 0.2 µg/mL (≈ 0.455 µM); in the test with P388, 1.6 µg/mL (≈ 3.64 µM); in the test on B16 it was 4.6 µg/mL (≈ 10.5 µM).

In the case of `OCC#CCSc1cnc2ccccc2c1SCC#CCBr`, the IC50 in test [1] worked out at 36.2 µg/mL (≈ 92.3 µM); with CCRF-CEM it was 0.6 µg/mL (≈ 1.53 µM); in the test with P388 it was 43.2 µg/mL (≈ 110 µM); with B16, 4.9 µg/mL (≈ 12.5 µM).

As for `CSc1cnc2ccccc2c1[Se]CC#CCO`, the IC50 in test [1] turned out to be 3.4 µg/mL (≈ 10.5 µM); with CCRF-CEM, 0.5 µg/mL (≈ 1.55 µM); with P388, 2.6 µg/mL (≈ 8.07 µM); in the test on B16, 4.2 µg/mL (≈ 13 µM).

For `OCC#CCSc1cnc2ccccc2c1Cl`, the IC50 was 6.2 µg/mL (≈ 23.5 µM) in test [1], 4.1 µg/mL (≈ 15.5 µM) with CCRF-CEM and 2.4 µg/mL (≈ 9.1 µM) with P388. In addition, the outcome in the test with B16 was inactive.
